US9828350B2, “5,6-dihydro-2H-[1,4]oxazin-3-yl-amine derivatives useful as inhibitors of beta-secretase (BACE)” (Janssen Pharmaceutica NV, priority 2010, dated 2017)

How the values were obtained:
[1] = molecular target: recombinant BACE1 protein (Homo sapiens, UniProt P56817); assay: Biochemical FRET based assay; conditions: recombinant BACE1 1 μg/ml, 120 minutes at room temperature, pH 5.0; for IC50: read-out: Biochemical FRET based assay pIC50 (converted)
Description: Biochemical FRET Based Assay
This assay is a Fluorescence Resonance Energy Transfer Assay (FRET) based assay. The substrate for this assay is an APP derived 13 amino acids peptide that contains the ‘Swedish’ Lys-Met/Asn-Leu mutation of the amyloid precursor protein (APP) beta-secretase cleavage site. This substrate also contains two fluorophores: (7-methoxycoumarin-4-yl) acetic acid (Mca) is a fluorescent donor with excitation wavelength at 320 nm and emission at 405 nm and 2,4-Dinitrophenyl (Dnp) is a proprietary quencher acceptor. […] Upon cleavage by BACE1, the fluorophore Mca is separated from the quenching group Dnp, restoring the full fluorescence yield of the donor. The increase in fluorescence is linearly related to the rate of proteolysis.
Briefly in a 384-well format recombinant BACE1 protein in a final concentration of 1 μg/ml is incubated for 120 minutes at room temperature with […] substrate in incubation buffer (40 mM Citrate buffer pH 5.0, 0.04% PEG, 4% DMSO) in the absence or presence of compound. Next the amount of proteolysis is directly measured by fluorescence measurement at T=0 and T=120 (excitation at 320 nm and emission at 405 nm). Results are expressed in RFU (Relative Fluorescence Units), as difference between T120 and TO.

[2] = system: Abeta 1-42; assay: Cellular αLisa assay in SKNBE2 cells, Abeta 1-42; type: cell-based, human; conditions: incubated for 18 hours; for IC50: Homo sapiens, SKNBE2, 18 h, read-out: Cellular αLisa assay in SKNBE2 cells Abeta 42 pIC50 (converted)
Description: (§1) Cellular αLisa Assay in SKNBE2 Cells
(§2) In two αLisa assays the levels of Abeta total and Abeta 1-42 produced and secreted into the medium of human neuroblastoma SKNBE2 cells are quantified. The assay is based on the human neuroblastoma SKNBE2 expressing the wild type Amyloid Precursor Protein (hAPP695). The compounds are diluted and added to these cells, incubated for 18 hours and then measurements of Abeta 1-42 and Abeta total are taken. Abeta total and Abeta 1-42 are measured by sandwich αLisa. αLisa is a sandwich assay using biotinylated antibody AbN/25 attached to streptavidin coated beads and antibody Ab4G8 or cAb42/26 conjugated acceptor beads for the detection of Abeta total and Abeta 1-42 respectively. In the presence of Abeta total or Abeta 1-42, the beads come into close proximity. The excitation of the donor beads provokes the release of singlet oxygen molecules that trigger a cascade of energy transfer in the acceptor beads, resulting in light emission. Light emission is measured after 1 hour incubation (excitation at […] and emission at 615 nm).

[3] = system: Abeta total; assay: Cellular αLisa assay in SKNBE2 cells, Abeta total; type: cell-based, human; conditions: incubated for 18 hours; for IC50: Homo sapiens, SKNBE2, 18 h, read-out: Cellular αLisa assay in SKNBE2 cells Abetatotal pIC50 (converted)
Description: as §1, §2

Chain of recombinant BACE1 protein (P56817 46-501): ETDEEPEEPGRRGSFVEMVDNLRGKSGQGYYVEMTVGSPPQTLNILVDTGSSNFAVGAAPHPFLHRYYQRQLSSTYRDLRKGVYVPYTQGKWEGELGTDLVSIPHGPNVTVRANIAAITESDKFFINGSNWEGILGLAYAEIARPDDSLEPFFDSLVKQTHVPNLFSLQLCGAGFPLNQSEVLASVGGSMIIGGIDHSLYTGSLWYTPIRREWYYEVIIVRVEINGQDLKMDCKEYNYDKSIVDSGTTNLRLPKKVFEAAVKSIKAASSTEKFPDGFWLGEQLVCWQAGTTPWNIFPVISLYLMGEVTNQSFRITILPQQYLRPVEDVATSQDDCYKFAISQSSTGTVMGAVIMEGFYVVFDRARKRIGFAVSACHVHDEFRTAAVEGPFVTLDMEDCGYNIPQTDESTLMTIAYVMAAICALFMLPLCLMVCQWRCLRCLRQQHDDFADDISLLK

| SMILES | Biochemical FRET based assay pIC50 [1] | Cellular αLisa assay in SKNBE2 cells Abeta 42 pIC50 [2] | Cellular αLisa assay in SKNBE2 cells Abetatotal pIC50 [3] | IC50 [1] | IC50 [2] | IC50 [3] |
| --- | --- | --- | --- | --- | --- | --- |
| C[C@H]1OC[C@](C)(c2cccc(NC(=O)c3ccc(Cl)cn3)c2)N=C1N (racemic) [Compound 20, trans-rac-N-[3-(5-Amino-3,6-dimethyl-3,6-dihydro-2H-1,4-oxazin-3-yl)phenyl]-5-chloropyridine-2-carboxamide] | 6.78 | 7.81 | 7.86 | – | – | – |
| CC1(c2cccc(NC(=O)c3ccc(C#N)cc3)c2)COCC(N)=N1.Cl (racemic) [Compound 42] | 5.74 | 5.85 | 5.9 | – | – | – |
| CC1(c2cc(-c3cncnc3)ccc2F)COCC(N)=N1 (racemic) [Compound 58] | 5.11 | 6.7 | 6.68 | – | – | – |
| CC1(c2cc(NC(=O)c3ccc(Cl)cn3)c(F)cc2F)COCC(N)=N1 (racemic) [Compound 60] | 5.65 | 6.89 | 6.92 | – | – | – |
| COc1cncc(-c2ccc(F)c(C3(C)COCC(N)=N3)c2)c1 (racemic) [Compound 63] | 5.46 | 6.94 | 6.9 | – | – | – |
| CC1(c2cccc(NC(=O)c3ccc(C#N)cn3)c2)COCC(N)=N1 (racemic) [Compound 64] | 6.41 | 7.36 | 7.37 | – | – | – |
| COc1cncc(-c2cc(C3(C)COCC(N)=N3)c(F)cc2F)c1 (racemic) [Compound 66] | 5.69 | 6.92 | 7.0 | – | – | – |
| C[C@@]1(c2cc(-c3cncnc3)c(F)cc2F)N=C(N)CO[C@H]1F (racemic) [Compound 83, trans-rac-5-(2,4-difluoro-5-pyrimidin-5-ylphenyl)-6-fluoro-5-methyl-5,6-dihydro-2H-1,4-oxazin-3-amine] | 6.01 | 6.29 | 6.29 | – | – | – |
| C[C@@]1(c2cccc(NC(=O)c3ccc(Cl)cn3)c2)N=C(N)CO[C@H]1F (racemic) [Compound 91, trans-rac-N-[3-(5-amino-2-fluoro-3-methyl-3,6-dihydro-2H-1,4-oxazin-3-yl)phenyl]-5-chloropyridine-2-carboxamide] | 7.03 | 7.82 | 7.86 | – | – | – |
| CC1(c2cc(-c3cc(Cl)cc(Cl)c3)ccn2)COCC(N)=N1 (racemic) [Compound 121] | 5.73 | 6.43 | 6.48 | – | – | – |
| C[C@H]1OC[C@@](C)(c2cccc(NC(=O)c3ccc(Cl)cn3)c2)N=C1N (racemic) [Compound 151, cis-rac-N-[3-(5-Amino-3,6-dimethyl-3,6-dihydro-2H-1,4-oxazin-3-yl)phenyl]-5-chloropyridine-2-carboxamide] | 6.4 | 7.8 | 7.83 | – | – | – |
| C[C@@]1(c2cccc(-c3cncnc3)c2)CO[C@@](C)(C(F)(F)F)C(N)=N1 (racemic) [Compound 161, trans-rac-2,5-dimethyl-5-(3-pyrimidin-5-ylphenyl)-2-(trifluoromethyl)-5,6-dihydro-2H-1,4-oxazin-3-amine] | 4.53 | <5 | <5 | – | – | – |
| C[C@]1(c2cccc(-c3cncnc3)c2)CO[C@@](C)(C(F)(F)F)C(N)=N1 (racemic) [Compound 162, cis-rac-2,5-dimethyl-5-(3-pyrimidin-5-ylphenyl)-2-(trifluoromethyl)-5,6-dihydro-2H-1,4-oxazin-3-amine] | 5.21 | 6.1 | 6.14 | – | – | – |
| CC1(c2cccc(NC(=O)c3ccc(Cl)cn3)c2)COC(F)(C(F)(F)F)C(N)=N1 (single isomer, unassigned) [Compound 15, (R*,R*)—N-{3-[5-amino-6-fluoro-3-methyl-6-(trifluoromethyl)-3,6-dihydro-2H-1,4-oxazin-3-yl]phenyl}-5-chloropyridine-2-carboxamide] | – | – | – | 2.75 µM | 0.49 µM | 3.09 µM |
| CC1(c2cccc(NC(=O)c3ccc(C#N)cn3)c2)COCC(N)=N1 (single isomer, unassigned) [Compound 49] | 4.6 | 5.68 | 5.66 | – | – | – |
| CC1(c2cc(-c3cncnc3)ccc2F)COCC(N)=N1 (single isomer, unassigned) [Compound 53] | <4.52 | 5.28 | <5 | – | – | – |
| CC1(c2cc(-c3cncnc3)ccc2F)COCC(N)=N1 (single isomer, unassigned) [Compound 54] | 5.41 | 6.68 | 6.65 | – | – | – |
| COc1cncc(-c2ccc(F)c(C3(C)COCC(N)=N3)c2)c1 (single isomer, unassigned) [Compound 56] | 5.69 | 7.02 | 7.1 | – | – | – |
| COc1cnc(C(=O)Nc2cccc(C3(C)COC(F)(C(F)(F)F)C(N)=N3)c2)cn1 (single isomer, unassigned) [Compound 69] | – | 5.13 | <5 | 5.13 µM | – | – |
| CC1(c2cccc(NC(=O)c3ccc(Cl)cn3)c2)COC(F)(C(F)(F)F)C(N)=N1 (single isomer, unassigned) [Compound 70] | 5.77 | 5.17 | 5.31 | – | – | – |
| CC1(c2cccc(NC(=O)c3ccc(Cl)cn3)c2)COC(F)(C(F)(F)F)C(N)=N1 (single isomer, unassigned) [Compound 71] | 6.25 | <5 | <5 | – | – | – |
| CC1(c2cc(-c3cncnc3)c(F)cc2F)N=C(N)COC1F (single isomer, unassigned) [Compound 81] | – | – | – | 8.91 µM | 1.23 µM | 1.2 µM |
| COc1cncc(-c2cccc(C3(C)N=C(N)COC3F)c2)c1 (single isomer, unassigned) [Compound 88] | – | 5.66 | 5.65 | > 30.2 µM | – | – |
| COc1cncc(-c2cccc(C3(C)N=C(N)COC3F)c2)c1 (single isomer, unassigned) [Compound 89] | – | 6.51 | 6.67 | 5.5 µM | – | – |
| CC1(c2cccc(NC(=O)c3ccc(Cl)cn3)c2)N=C(N)COC1F (single isomer, unassigned) [Compound 90] | 6.37 | 7.76 | 7.76 | – | – | – |
| COc1cncc(-c2cccc(C3(C)N=C(N)COC3F)c2)c1 (single isomer, unassigned) [Compound 92] | – | 5.47 | 5.51 | 15.1 µM | – | – |
| CC1(c2cccc(-c3cncnc3)c2)N=C(N)COC1F (single isomer, unassigned) [Compound 95] | – | 6.48 | 6.5 | 1.41 µM | – | – |
| CC1(c2cccc(-c3cncnc3)c2)N=C(N)COC1F (single isomer, unassigned) [Compound 97] | – | 6.86 | 6.87 | 6.17 µM | – | – |
| COc1cncc(-c2cccc(C3(C)N=C(N)COC3C(F)(F)F)c2)c1 (single isomer, unassigned) [Compound 101] | – | 7.71 | 7.7 | 0.178 µM | – | – |
